Test results: article PMC3715451, “Roles for Ordered and Bulk Solvent in Ligand Recognition and Docking in Two Related Cavities” (PLoS ONE, 2013)
Entries after “also recorded” stand apart in the source; their conditions may differ. Like-named read-outs stand apart in the source and are kept apart here.

Assays:
[1] = molecular target: T1, Cytochrome c Peroxidase Gateless cavity (P190G/W191G/Δ192-3) (Saccharomyces cerevisiae, UniProt P00431, A260G/D219G/DEL257-258/P257G/T120I/W258G); experiment: Binding to the CcP Gateless cavity by titration of the UV-Vis Heme Soret band (or ITC); details: for Binding by UV-Vis: neutral docking hits, at up to 1 mM concentration
T1 construct: made in house
Method: (§1) Our first interest was to investigate the effect of opening the cavity to bulk solvent. Six known ligands of the buried W191G cavity were tested for binding to the Gateless cavity (P190G/W191G/Δ192-3) by UV-Vis titration or by Isothermal Titration Calorimetry (ITC) ( Figure 2 , Table S1 and Figure S1).
(§2) The compounds were tested for binding by measuring perturbation of the Heme Soret band at 10°C in 100 mM citrate buffer at pH 4.5 or 500 mM MES buffer pH 6.0 [27], [73]. To avoid competition with small cations like potassium, the pH of both buffer conditions was adjusted with Bis-Tris-Propane. Stock solutions were made up in DMSO and diluted into assay buffer to derive KD values in titration curves. KD values were obtained by fitting the difference absorbance of the Heme Soret band to a one-site binding hyperbola in GraphPad Prism (GraphPad Software, Inc.).
(§3) Experiments were performed as described. Assays were performed at 10°C in 100 mM citrate buffer at pH 4.5. Ligand stocks were prepared in buffer from overnight dialysis of the protein to prevent buffer mismatch.

[2] = tested on: Cytochrome c Peroxidase Gateless cavity (P190G/W191G/Δ192-3); experiment: as above; details: for improvement in affinity in Gateless versus closed W191G: ratio of KD W191G / Gateless; for loss in affinity going from W191G to Gateless: ratio of KD Gateless / W191G
Method: as §1, §2, §3

CcP Gateless = molecular target: T2, CcP Gateless (Saccharomyces cerevisiae, UniProt P00431, A260G/D219G/DEL257-258/P257G/T120I/W258G); experiment: Low C-value Isothermal Titration Calorimetry against CcP Gateless; format: binding; details: ITC, 283K; † approximate value from partial ITC curves
T2 construct: made in house
Method: as §3
Table S1. ITC data (ΔG, ΔH and ΔS): binding of compounds 1, 2, 3, 4 and 6 to CcP Gateless at 283K.

[3] = molecular target: Cytochrome c Peroxidase W191G cavity; details: closed W191G cavity, cited from earlier work
[4] = six known W191G ligands, UV-Vis titration or ITC, † = approximate KD by endpoint UV-Vis assay or partial ITC curves, limited by solubility, read-out: KD Gateless
[5] = compounds selected from the SEV docking screen, CcP Gateless cavity, UV-Vis Heme Soret band titration, read-out: KD
[6] = known ligands of W191G, reference not given, read-out: KD W191G

T1 sequence (P00431 other isoform, or with tags, fused parts or gaps T120I/D219G/DEL257-258/A260G): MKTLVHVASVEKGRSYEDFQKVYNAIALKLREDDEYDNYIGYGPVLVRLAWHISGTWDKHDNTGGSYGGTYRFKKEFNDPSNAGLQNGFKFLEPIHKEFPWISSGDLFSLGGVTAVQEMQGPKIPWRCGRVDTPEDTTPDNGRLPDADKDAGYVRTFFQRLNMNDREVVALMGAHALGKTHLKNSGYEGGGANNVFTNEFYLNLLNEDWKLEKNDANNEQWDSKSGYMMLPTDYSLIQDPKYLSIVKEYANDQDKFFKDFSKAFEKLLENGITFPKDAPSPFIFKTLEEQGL
T2 sequence (P00431 other isoform, or with tags, fused parts or gaps T120I/D219G/DEL257-258/A260G): as above

Structure (SMILES): Oc1cccc(F)c1O [Compound 6, 3-fluorocatechol]
- Kd ([1]; open Gateless cavity, read-out: affinity in Gateless): 3100 µM
- Kd [1, 4]: ~3100 µM
- improvement in affinity in Gateless versus closed W191G [2]: 2 fold
- ΔG (CcP Gateless): ~-3.2† kcal/mol
- ΔH (CcP Gateless): ~-1.0† kcal/mol
- Kd ([3]; no reference given, read-out: affinity in W191G): 7700 µM

Structure (SMILES): Nc1c2c(nc3sccc13)CCCC2 [Compound 10, 5,6,7,8-tetrahydrothieno[2,3-b]quinolin-4-amine]
- Kd [1, 5]: 64 µM

Structure (SMILES): O=Cc1cnc2cc[nH]c2c1 [Compound 24, 1H-Pyrrolo[3,2-b] pyridine-6-carbaldehyde]
- Kd [1, 5]: > 2000 µM

Structure (SMILES): Nc1ncc(C=O)c(N)n1 [Compound 23]
- KD ([1]; compounds selected from the SEV docking screen, CcP Gateless cavity, UV-Vis Heme Soret band titration): Non Binder

Structure (SMILES): Nc1c([N+](=O)[O-])cnc2ccccc12 [Compound 13]
- Kd [1, 5]: 8 µM

Structure (SMILES): O=C(Oc1ccccc1)c1ccc2n[nH]nc2c1 [Compound 8]
- Binding by UV-Vis [1]: none showed measurable affinity; also recorded: No binding

Structure (SMILES): O=C(/C=C/c1ccc(F)cc1)c1ccco1 [Compound 7]
- Binding by UV-Vis [1]: none showed measurable affinity; also recorded: No binding

Structure (SMILES): Oc1ccccc1 [Compound 5, Phenol]
- change of affinity between the two cavities ([2]; W191G versus Gateless): almost unchanged
- Kd [3, 6]: 4100 µM

Structure (SMILES): Cc1cn2cccc(O)c2n1 [Compound 21]
- Kd [1, 5]: 16 µM

Structure (SMILES): Nc1cccc(N)n1 [Compound 3, 2,6-diaminopyridine]
- Kd [1, 4]: 38 µM
- improvement in affinity in Gateless versus closed W191G [2]: about 1.5 fold
- TΔS (CcP Gateless): -3.31 kcal/mol
- ΔG (CcP Gateless): -5.73 kcal/mol
- ΔH (CcP Gateless): -9.04 kcal/mol
- Kd [3, 6]: 60 µM

Structure (SMILES): C[n+]1cccc(N)c1 [Compound 4, 3-amino-1-methylpyridinium]
- Kd [1, 4]: ~3000 µM
- loss in affinity going from W191G to Gateless [2]: 6 fold
- TΔS (CcP Gateless): ~-3.6† kcal/mol
- ΔG (CcP Gateless): ~-3.6† kcal/mol
- ΔH (CcP Gateless): ~-7.2† kcal/mol
- Kd [3, 6]: 500 µM

Structure (SMILES): Cn1ccnc1Sc1ccccc1N [Compound 15]
- Kd [1, 5]: 203 µM

Structure (SMILES): Cc1cnc(N)s1 [Compound 1, 2-amino-5-methylthiazole]
- Kd [1, 4]: 95 µM
- loss in affinity going from W191G to Gateless [2]: 16 fold
- TΔS (CcP Gateless): 0.21 kcal/mol
- ΔG (CcP Gateless): -5.21 kcal/mol
- ΔH (CcP Gateless): -5.00 kcal/mol
- Kd [3, 6]: 6 µM

Structure (SMILES): O=C(Oc1cccc([N+](=O)[O-])c1)c1ccncc1 [Compound 9]
- Binding by UV-Vis [1]: none showed measurable affinity; also recorded: No binding

Structure (SMILES): C[C@@H](O)CNc1ncnc2ccccc12 [Compound 19]
- Kd [1, 5]: 37 µM

Structure (SMILES): Nc1cccc2nccn12 [Compound 14, imidazo[1,2-a]pyridin-5-amine]
- Kd [1, 5]: 14 µM

Structure (SMILES): CNc1nc2ccccc2[nH]1 [Compound 22, N-methyl-1H-1,3-benzodiazol-2-amine]
- Kd [1, 5]: 288 µM

Structure (SMILES): Nc1c(Br)cnc2ccccc12 [Compound 11]
- Kd [1, 5]: 19 µM

Structure (SMILES): COc1ccc(Nc2cc(C)nc(N)n2)cc1 [Compound 16]
- Kd [1, 5]: 17 µM

Structure (SMILES): Cc1cc(N)n(-c2ccccc2[N+](=O)[O-])n1 [Compound 18]
- Kd [1, 5]: 823 µM

Structure (SMILES): OCc1cnc2cc[nH]c2c1 [Compound 17, (1H-Pyrrolo[3,2-b]pyridin-6-yl)methanol]
- Kd [1, 5]: 982 µM

Structure (SMILES): Nc1ccnc(N)n1 [Compound 2, 2,4-diaminopyrimidine]
- Kd [1, 4]: 389 µM
- loss in affinity going from W191G to Gateless [2]: 8 fold
- TΔS (CcP Gateless): -1.14 kcal/mol
- ΔG (CcP Gateless): -4.42 kcal/mol
- ΔH (CcP Gateless): -5.56 kcal/mol
- Kd [3, 6]: 50 µM

Structure (SMILES): Nc1ccc2nccn2c1 [Compound 20, Imidazo[1,2-a]pyridin-6-amine]
- Kd [1, 5]: 290 µM
